This is an account of results in PubChem BioAssay AID493245 (The Scripps Research Institute Molecular Screening Center, 2011).

The source made the active and inactive calls. How the calls were made is not given here.

In this assay the test system is 3C-like protease (Infectious bronchitis virus). Briefly: blockers of SARS 3CLpro activity – biochemical, fluorescence, set 3, late-stage follow-up (AID 493245). The following applies: recombinant 3CLpro, fluorogenic substrate cleavage; at 100 µM; active compounds read high.
For `O=C(Nc1ccc(N(C(=O)Cn2nnc3ccccc32)C(C(=O)NCc2ccccc2)c2cccc(F)c2)cc1)C1CC1` (stereo unspecified), the inhibition is 68.8%.
The result for `O=C(Nc1ccc(N(C(=O)Cn2nnc3ccccc32)C(C(=O)NCc2ccccc2)c2cccc(F)c2)cc1)C1CCC1` (stereo unspecified) reads 62.5%; that for `CC(C)C(=O)Nc1ccc(N(C(=O)Cn2nnc3ccccc32)C(C(=O)NCc2ccccc2)c2cccc(F)c2)cc1` (stereo unspecified), 73.5%.
The result for `CC(C)(C)NC(=O)C(c1cccnc1)N(C(=O)c1ccco1)C1CCCCC1` (stereo unspecified) reads 4.49% (inactive); that for `CC(C)(C)NC(=O)C(c1cccnc1)N(C(=O)c1ccco1)C12CC3CC(CC(C3)C1)C2` (stereo unspecified), 1.27% (inactive).
The result for `CC(C)(C)NC(=O)C(c1cccnc1)N(C(=O)c1ccco1)C1CC2CCC1C2` (stereo unspecified) reads 5.71% (inactive).
